The subject of one series is C. albicans. It counts as cell-based, C. albicans (KCTC 7270). Particulars: 36 h. An excerpt:
(§1) Aspergillus flavus (KCTC 6905), A. fumigatus (KCTC 6145), Fusarium moniliforme (KCTC 6149), F. oxysporum (KCTC 16909), C. albicans (KCTC 7270), C. krusei (CCARM 14017), C. parapsilosis (CCARM 14016), C. tropicalis (KCTC 7221), and T. beigelii (KCTC 7707) were obtained from the Korea Collection for Type Cultures (KCTC) and Culture Collection of Antimicrobial Resistant Microbes (CCARM). Mold and yeast fungi were pre-grown on potato dextrose (PD) and yeast extract peptone dextrose (YPD) agars, respectively.
(§2) Antifungal activity of peptides was performed by microtiter plate assays. Fungal conidia from four-day-old molds were collected using 0.08% Triton X-100 (v/v), and pre-cultivated yeast cells were adjusted to 2 × 10^4 spores/mL in 10 mM sodium phosphate buffer (SP, pH 7.2) or 10 mM 2-(N-morpholino)ethanesulfonic acid (MES) buffer (pH 5.5) supplemented with 20% culture medium, followed by addition to peptide solutions (0.25, 0.5, 1, 1.5, 2, 4, 6, 8, 12, 16, 32, 48, and 64 µM) in 96-well microtiter plates. After incubation for 36 h at 28 °C, the hyphal growth of conidia and the proliferation of yeast cells were observed under a light microscope. All assays were performed in triplicate. The MIC values were defined as the lowest concentration of samples that reduced fungal germination (for mold) or cell proliferation (for yeast) by more than 90% [34].

Series [1] has as its system C. tropicalis cells. Nature of the series: SYTOX Green uptake (membrane permeability). It counts as cell-based. Particulars: SP buffer pH 7.2, 0.5 μM SYTOX Green, peptides 1-64 µM, monitored 30 min. The procedure:
C. tropicalis cells pre-grown at 28 °C were washed and suspended (2 × 10^6 cells/mL) in SP buffer (pH 7.2). The cells were pre-incubated with SYTOX Green (final concentration of 0.5 μM) for 15 min in the dark, followed by adding two-fold serial dilutions of peptides at concentrations of 1 to 64 µM. The fluorescence intensity was monitored for 30 min at 485 (Ex) and 520 (Em) nm using a microtiter SpectraMax M5 reader (Molecular Devices, San Jose, CA, USA).

The nature of series [2]: Calcein leakage from fungus-mimic artificial vesicles. Particulars: fungus-mimic PC/PE/PI/ergosterol vesicles, 20 μM lipid; peptide/lipid molar ratio 0.05; 100% = 0.03% Triton X-100; three independent experiments. The protocol: (§3) The permeability of peptides in calcein-entrapped artificial liposomes was assayed by measuring calcein leakage. The desired mixtures of lipids (PC/PE/PI/ergosterol, 5:4:1:2 and PC/CH/SM, 2:1:1, weight ratio) were dissolved in chloroform at 10 mg/mL, dried in a glass tube under nitrogen, and then lyophilized overnight to remove residual solvent. The dried lipid films were resuspended in 1 mL of dye solution (80 mM calcein, 10 mM HEPES buffer, pH 7.2) at 50 °C and vortexed, followed by freeze-thawing for nine cycles and extrusion with polycarbonate filters (0.2-μm pore-size) using an Avanti Mini-Extruder (Avanti Polar Lipids Inc., Alabaster, AL, USA). Free calcein was removed using PD-10 desalting columns (GE Healthcare Life Science, Seoul, Korea). Calcein-entrapped vesicles of 20 μM lipids were incubated with peptides at concentrations of […], 0.02, 0.05, and 0.1 molar ratio (peptide/lipid) and the fluorescence was assessed at 480 (Ex) and 520 (Em) nm using a microtiter SpectraMax M5 reader (Molecular Devices). Complete (100%) release was achieved by the addition of 0.03% Triton X-100 (v/v).

For the next series, the system named is C. tropicalis. Nature of the series: C. tropicalis skin infection mouse model. It counts as in vivo, BALB/C female mice. The procedure: All animal experiments and procedures were performed with the approval of the Institutional Animal Care and Use Committee (IACUC) of Sunchon National University, Korea (SCNU IACUC-2019-10). BALB/C female mice (six weeks old) were obtained from Koatech Co. (Pyongtaek, Gyeonggido, Korea) and divided into three groups (n = 4): control, pseudin-2, and P2-LZ4 groups. The skin on the back of each mouse was shaved 1 h before infection, and the mice were anesthetized by inhalation of 5% (induction) and 2% (maintenance) isoflurane in pure oxygen. Mice were then subjected to subcutaneous infection with 100 µL C. tropicalis (10^7 cells/mL) by injection into the dorsum of each mouse. At 24 h after infection, 100 µL PBS, pseudin-2 (0.1 mg/mL), or P2-LZ4 (0.1 mg/mL) was injected into the same site. At four days after peptide injection, mice were euthanized by CO2 inhalation, and the infected skin tissues were excised, fixed in 4% paraformaldehyde, embedded in paraffin, stained with H&E, and observed by light microscopy.

In another series the test system is mouse erythrocytes. Nature of the series: Hemolytic assay. It counts as cell-based. Particulars: 64 µM peptide, 8% (v/v) mRBCs, 37 °C, 2 h (method) / 4 h (figure legend). The procedure:
Mouse blood was collected into sodium heparin-coated tubes (BD Vacutainer; BD Diagnostics, Oxford, UK). The mRBCs were obtained by centrifugation (800× g, 10 min) and washing with PBS. The washed mRBCs were added to a final concentration of 8% (v/v) in 64 µM peptide solution, followed by incubation for 2 h at 37 °C. After centrifugation, each tube was digitally recorded.

Series [3] deals with C. tropicalis cells. Nature of the series: Mitochondrial superoxide, MitoSOX Red flow cytometry. It counts as cell-based. Particulars: peptide at MIC for 8 h. The procedure:
Mitochondrial SOX was measured using MitoSOX Red probe. C. tropicalis cells (2 × 10^4 spores/mL) were treated with samples at the appropriate MIC for 8 h and then stained with MitoSOX Red according to the manufacturer’s instructions. The stained cells were acquired by flow cytometry (Attune NxT Acoustic Focusing Cytometer; ThermoFisher Scientific Co., Eugene, OR, USA) at 561 nm by 10,000 total events.

The next series relates to A. flavus. It counts as cell-based, Aspergillus flavus (KCTC 6905). Particulars: 36 h.
From the text: as §1, §2

The next series relates to C. parapsilosis. It counts as cell-based, C. parapsilosis (CCARM 14016). Particulars: 36 h.
From the text: as §1, §2

Series [4] in a line: Calcein leakage from mammalian-mimic artificial vesicles. Particulars: mammalian-mimic PC/CH/SM vesicles, 20 μM lipid; peptide/lipid molar ratio 0.1; 100% = 0.03% Triton X-100. The procedure:
as §3

Read-outs that look alike come from different tables or passages of the source. No end group written: not given here.

We go through one substance from article PMC7766124, “Improved Cell Selectivity of Pseudin-2 via Substitution in the Leucine-Zipper Motif: In Vitro and In Vivo Antifungal Activity” (Antibiotics, 2020).

Consider “GLNALKKVFQGIHEAIKLINNHVQ-NH2 [Pseudin-2]”, for which the MIC with C. albicans (pH 5.5) is recorded as 32 µM; in the series with C. albicans (pH 7.2) it was 12 µM; against A. flavus (pH 5.5), 16 µM; with A. flavus (pH 7.2) it was 64 µM; against C. parapsilosis (pH 5.5) it was >64 (>64) µM; with C. parapsilosis (pH 7.2), >64 (>64) µM. The “SYTOX Green fluorescence intensity” value in the series with C. tropicalis cells [1] is given as “gradual, concentration-dependent increases in fluorescence intensity”. Further, the leakage of calcein in [2] is recorded as 80.1%. Further, the “histological evaluation of skin tissues (H&E)” value with C. tropicalis (100 µL of 0.1 mg/mL peptide s.c. 24 h after infection, tissues taken four days after peptide injection) is on record as “able to recover from histological lesions”. Further, the “skin lesions (swelling and redness in the dorsal skin)” value with C. tropicalis (100 µL of 0.1 mg/mL peptide s.c. 24 h after s.c. infection, monitored seven days, n = 4) is “reduced swelling and redness”. For the same substance, the “hemolytic effects (hemoglobin release, by visualization)” value with mouse erythrocytes was “did not release hemoglobin”. The “MitoSOX Red fluorescence (mitochondrial SOX)” value with C. tropicalis cells [3] was “a little right shift”. In addition, the calcein efflux result in series [4] is given as “significant dye leakage”.
